Where a SMILES comes first, the peptide text is derived from it. Where no end group is shown, it is not given here. [ ]: non-standard residue; d: D form. The star is where a group is joined. hArg = N=C(N)NCCCC[C@H](N)C(=O)O; Hexanoyl = CCCCCC(=O)*; Aib = CC(C)(N)C(=O)O
How the values were obtained:
human VPAC2 [1] = biological target: T1, human VPAC2 (Homo sapiens, UniProt P41587); assay: Alpha screen cAMP in vitro potency, human VPAC2 receptor; type: cell-based; settings: cAMP generation; single result from two analyses performed in a single run; read-out: Human VPAC2 Receptor: Alpha Screen EC50
T1 construct: expressed in transfected cells
T1 sequence (P41587 24-438): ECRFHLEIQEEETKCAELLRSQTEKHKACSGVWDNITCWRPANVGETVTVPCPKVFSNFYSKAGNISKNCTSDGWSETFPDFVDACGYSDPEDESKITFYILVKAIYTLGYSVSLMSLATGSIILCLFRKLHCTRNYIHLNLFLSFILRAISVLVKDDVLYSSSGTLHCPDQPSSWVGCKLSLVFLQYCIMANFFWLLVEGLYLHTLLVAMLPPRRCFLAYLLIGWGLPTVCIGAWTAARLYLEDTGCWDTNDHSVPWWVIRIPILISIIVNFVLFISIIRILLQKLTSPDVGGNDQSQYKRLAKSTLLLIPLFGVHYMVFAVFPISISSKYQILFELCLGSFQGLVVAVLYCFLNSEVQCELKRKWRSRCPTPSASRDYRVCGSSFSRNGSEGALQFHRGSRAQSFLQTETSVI
Summary of the method: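 Dissociated cells, 50,000 per point in stimulation buffer, were incubated with stimuli and AlphaScreen acceptor beads for 60 min.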

rat VPAC2 receptor = biological target: T2, rat VPAC2 receptor (Rattus norvegicus, UniProt P35000); assay: DiscoveRx in vitro potency, CHO-PO cells transiently transfected with rat VPAC 2 receptor DNA; type: cell-based; set-up: expressed in transfected cells; host or cells: CHO-PO, transient
T2 sequence (P35000 23-437): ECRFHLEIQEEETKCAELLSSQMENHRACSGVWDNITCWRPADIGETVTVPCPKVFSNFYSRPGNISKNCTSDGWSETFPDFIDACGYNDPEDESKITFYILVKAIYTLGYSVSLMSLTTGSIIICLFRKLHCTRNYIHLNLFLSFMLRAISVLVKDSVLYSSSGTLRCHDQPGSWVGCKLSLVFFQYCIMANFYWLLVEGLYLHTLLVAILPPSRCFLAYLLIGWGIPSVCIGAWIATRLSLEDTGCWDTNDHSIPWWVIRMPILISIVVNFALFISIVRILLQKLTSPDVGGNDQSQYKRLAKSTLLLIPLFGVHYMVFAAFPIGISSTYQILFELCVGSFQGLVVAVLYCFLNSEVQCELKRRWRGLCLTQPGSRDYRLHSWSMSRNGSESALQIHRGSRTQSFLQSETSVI
Procedure: (§1) Also, the cells are washed twice. […] The stimuli are present for 30 minutes. Then, the assay buffer is gently removed.

human VPAC1 [2] = biological target: T3, human VPAC1 (Homo sapiens, UniProt P32241); assay: Filter binding assay, membranes of cells transiently transfected with human VPAC1, 125I-labeled VIP tracer (Table 2); set-up: expressed in transfected cells; settings: read-out: Human VPAC1 Receptor Binding
T3 sequence (P32241 31-457): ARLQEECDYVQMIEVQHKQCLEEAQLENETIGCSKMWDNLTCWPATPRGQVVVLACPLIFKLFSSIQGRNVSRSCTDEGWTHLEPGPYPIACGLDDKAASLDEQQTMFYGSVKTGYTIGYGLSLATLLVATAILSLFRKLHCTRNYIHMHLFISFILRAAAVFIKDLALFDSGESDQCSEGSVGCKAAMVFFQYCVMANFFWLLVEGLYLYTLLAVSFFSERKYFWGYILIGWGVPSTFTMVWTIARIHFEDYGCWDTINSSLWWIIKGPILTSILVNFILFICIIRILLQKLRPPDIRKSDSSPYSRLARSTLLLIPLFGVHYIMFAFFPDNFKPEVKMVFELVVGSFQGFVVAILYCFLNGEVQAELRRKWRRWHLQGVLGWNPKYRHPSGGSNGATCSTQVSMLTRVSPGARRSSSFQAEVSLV
Summary of the method: (§2)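 Competition binding of agonists against radiotracer on receptor membranes (2.5 μg) in 25 mM HEPES pH 7.4 with 0.5% protease-free BSA, about 40000 cpm tracer, 1 hour with shaking. Bound tracer was separated by filtration on PEI-presoaked, BSA-blocked glass-fibre filters, washed and counted by scintillation.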

human VPAC2 [3] = biological target: T1, human VPAC2; assay: Filter binding assay, membranes of stable VPAC2 cell line, 125I-labeled VIP tracer (Table 2); settings: read-out: Human VPAC2 Receptor Binding
Summary of the method: as §2

rat VPAC1 receptor = biological target: T4, rat VPAC1 receptor (Rattus norvegicus, UniProt P30083); assay: DiscoveRx in vitro potency, CHO-PO cells transiently transfected with rat VPAC 1 receptor DNA; type: cell-based; set-up: expressed in transfected cells; host or cells: CHO-PO, transient
T4 sequence (P30083 31-459): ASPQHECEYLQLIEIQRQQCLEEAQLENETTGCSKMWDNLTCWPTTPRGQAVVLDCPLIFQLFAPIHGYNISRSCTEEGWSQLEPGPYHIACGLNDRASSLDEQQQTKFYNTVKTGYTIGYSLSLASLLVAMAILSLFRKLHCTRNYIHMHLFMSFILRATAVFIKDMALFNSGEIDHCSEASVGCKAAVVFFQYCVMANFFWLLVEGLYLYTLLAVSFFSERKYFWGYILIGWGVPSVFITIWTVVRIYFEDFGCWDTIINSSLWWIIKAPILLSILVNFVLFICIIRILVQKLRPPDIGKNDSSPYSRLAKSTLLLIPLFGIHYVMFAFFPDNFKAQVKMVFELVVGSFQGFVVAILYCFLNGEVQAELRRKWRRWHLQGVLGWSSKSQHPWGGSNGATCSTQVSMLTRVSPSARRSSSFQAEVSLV
Procedure: as §1

human PAC1 [4] = biological target: T5, human PAC1 (Homo sapiens, UniProt P41586); assay: Filter binding assay, membranes of cells transiently transfected with human PAC1, 125I-labeled PACAP-27 tracer (Table 2); set-up: expressed in transfected cells; settings: read-out: Human PAC1 Receptor Binding
T5 sequence (P41586 21-468): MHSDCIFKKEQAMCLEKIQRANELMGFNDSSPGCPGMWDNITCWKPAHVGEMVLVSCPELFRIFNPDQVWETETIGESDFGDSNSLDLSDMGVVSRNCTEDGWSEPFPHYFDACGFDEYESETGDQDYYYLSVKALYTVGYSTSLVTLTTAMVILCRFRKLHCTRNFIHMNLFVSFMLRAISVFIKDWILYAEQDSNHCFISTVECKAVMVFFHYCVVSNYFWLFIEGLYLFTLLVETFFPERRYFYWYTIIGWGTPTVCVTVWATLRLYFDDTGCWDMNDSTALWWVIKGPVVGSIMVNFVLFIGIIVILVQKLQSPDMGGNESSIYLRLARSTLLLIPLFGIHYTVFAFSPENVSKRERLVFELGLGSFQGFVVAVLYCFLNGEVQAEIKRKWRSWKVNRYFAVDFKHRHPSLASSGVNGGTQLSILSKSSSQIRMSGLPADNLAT
Summary of the method: as §2

[5] = Rat serum stability studies (remaining active peptide by DiscoveRx cAMP on CHO-VPAC2 cells); type: in vitro ADME
Summary of the method: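 Rat serum, 18 h: +aprotinin aliquot at 4° C, no-aprotinin aliquot at 37° C. Then 30 min RT step, supernatant removed, 1 h shaking at 300 rpm. DiscoveRx cAMP kit on CHO-VPAC2; EC50 from cAMP data vs standards.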

human VPAC2 [6] = biological target: T1, human VPAC2; assay: DiscoveRx cAMP in vitro potency, CHO-S cell line stably expressing human VPAC2 receptor; type: cell-based; settings: cAMP generation; mean of two independent runs
Procedure: (§3) Also, the cells are washed twice. The cells are incubated in assay buffer plus IBMX for 15 minutes at room temperature. […] The stimuli are present for 30 minutes. Then, the assay buffer is gently removed. […] At day 3, the assay described above for the VPAC2 receptor cell line is performed.

human VPAC1 [7] = biological target: T3, human VPAC1; assay: DiscoveRx cAMP in vitro potency, CHO-PO cells transiently transfected with human VPAC1 receptor; type: cell-based; set-up: expressed in transfected cells; host or cells: CHO-PO, transient (Lipofectamine); settings: cAMP generation; mean of two independent runs; read-out: Human VPAC1 Receptor: DiscoveRx EC50
Procedure: as §3

human PAC1 [8] = biological target: T5, human PAC1; assay: DiscoveRx cAMP in vitro potency, CHO-PO cells transiently transfected with human PAC1 receptor; type: cell-based; set-up: expressed in transfected cells; host or cells: CHO-PO, transient (Lipofectamine); settings: cAMP generation; mean of two independent runs; read-out: Human PAC1 Receptor: DiscoveRx EC50
Procedure: as §3

Molecule	EC50 (human VPAC2 [1]) [nM]	EC50 (rat VPAC2 receptor) [nM]	IC50 (human VPAC1 [2]) [nM]	IC50 (human VPAC2 [3]) [nM]	EC50 (rat VPAC1 receptor) [nM]	IC50 (human PAC1 [4]) [nM]	Rat Serum Stability (estimated purity in % after 18 hours) [5] [%]	Rat Serum Stability (Estimated purity in % after 72 hours) [5] [%]	EC50 (human VPAC2 [6]) [nM]	EC50 (human VPAC1 [7]) [nM]	EC50 (human PAC1 [8]) [nM]
Hexanoyl-HSDAVFTDNYTRLR[Aib]QLAAK[Aib]YLQSIKNKRYGGPSSGAPPPS [Agonist P284]	0.18	0.07	> 3000	0.38	0.44	> 25000	27.89	–	–	–	–
Hexanoyl-HSDAVFTDNYTRL[Aib]KQVAAK[Aib]YLQSIKNKRYGGPSSGAPPPS [Agonist P244]	–	–	> 3000	26.9	127	> 25000	30.64	6.2	–	–	–
Hexanoyl-HSEAVFTENYTRLR[Aib]QVAA[Aib]KYLQSIKNKRYGGPSSGAPPPS [Agonist P314]	0.22	–	> 3000	0.57	29.2	> 25000	8.44	–	–	–	–
Hexanoyl-HSDAVFTDNYTRLLAKVAAKKYLQSIKNKRYGGPSSGAPPPS [Agonist P135]	0.18	0.05	251	0.43	0.02	748	–	–	–	–	–
HSDAVFTDNYTRLRKQVAAKKYLQSIRNKRYGGPSSGAPPPS [Agonist P23]	–	–	150	0.92	–	–	–	–	1.41	0.9	–
CCCCCC(=O)N[C@@H](Cc1c[nH]cn1)C(=O)N[C@@H](CO)C(=O)N[C@@H](CC(=O)O)C(=O)N[C@@H](C)C(=O)N[C@H](C(=O)N[C@@H](Cc1ccccc1)C(=O)N[C@H](C(=O)N[C@@H](CC(=O)O)C(=O)N[C@@H](CC(N)=O)C(=O)N[C@@H](Cc1ccc(O)cc1)C(=O)N[C@H](C(=O)N[C@@H](CCCCNC(=N)N)C(=O)N[C@@H](CC(C)C)C(=O)N[C@@H](CCCNC(=N)N)C(=O)NC(C)(C)C(=O)N[C@@H](CCC(N)=O)C(=O)N[C@H](C(=O)N[C@@H](C)C(=O)N[C@@H](C)C(=O)NC(C)(C)C(=O)N[C@@H](CCCCN)C(=O)N[C@@H](Cc1ccc(O)cc1)C(=O)N[C@@H](CC(C)C)C(=O)N[C@@H](CCC(N)=O)C(=O)N[C@@H](CO)C(=O)N[C@H](C(=O)N[C@@H](CCCCNC(=N)N)C(=O)N[C@@H](CCCCNC(=N)N)C(=O)NCC(=O)NCC(=O)N1CCC[C@H]1C(=O)N[C@@H](CO)C(=O)N[C@@H](CO)C(=O)NCC(=O)N[C@@H](C)C(=O)N1CCC[C@H]1C(=O)N1CCC[C@H]1C(=O)N1CCC[C@H]1C(=O)N[C@@H](CS)C(N)=O)[C@@H](C)CC)C(C)C)[C@@H](C)O)[C@@H](C)O)C(C)C [Agonist P333] (Hexanoyl-HSDAVFTDNYT[hArg]LR[Aib]QVAA[Aib]KYLQSI[hArg][hArg]GGPSSGAPPPC-NH2)	0.75	0.13	> 3000	9.71	1.37	–	40.90	61.2	–	–	–
Hexanoyl-HSDAVFTDNYTRLR[Aib]QIAA[Aib]KYLQSIKNKRYGGPSSGAPPPS [Agonist P322]	0.22	0.04	> 3000	0.4	0.5	> 25000	42.18	1.3	–	–	–
H-HSDAVTTDNYTRLRKQVAAKKYLQSIKNKRYGGPSSGAPPPS [Agonist P65]	–	–	–	–	–	–	–	–	> 1000	> 1000	0.7
HSDAVLTDNYTRLRKQVAAKKYLQSIKNKRYGGPSSGAPPPS [Agonist P64]	–	–	–	–	–	–	–	–	> 1000	221	–

Source: US20080026996A1, “Selective Vpac2 Receptor Reptide Agonists” (ELI LILLY AND COMPANY, priority 2004, published 2008)
